Measured values taken from US9447135B2, “Semi-synthetic mithramycin derivatives with anti-cancer activity” (UNIVERSITY OF KENTUCKY RESEARCH FOUNDATION, priority 2012, dated 2016).

What was measured:
[1] = 72 hour cytotoxicity, RH30; assay type: cell-based; conditions: Ewing sarcoma cell line RH30, 72 hour; read-out: IC50 (nM) RH 30
Description: (§1) The cytotoxicity of a subgroup of the MTM SA analogues was tested against various Ewing sarcoma cell lines and non-Ewing sarcoma cell lines over a 72 hour period. Each analogue was checked individually with a range of concentrations to determine the IC50 of the molecule in actively growing cell cultures.

[2] = test system: ES-2 Ewing sarcoma cell line; experiment: 72 hour cytotoxicity, ES-2; assay type: cell-based; conditions: Ewing sarcoma cell line ES-2, 72 hour
Description: as §1

[3] = test system: VCaP non-Ewing sarcoma cell line; experiment: 72 hour cytotoxicity, VCaP; assay type: cell-based
Description: as §1

[4] = test system: A549, human non-small cell lung cancer cells; experiment: 72 hour cytotoxicity, A549 (resazurin); assay type: cell-based; conditions: non-Ewing sarcoma cell line A549, 72 hour
Description: The cytotoxic effects of the side chain modifications of SA were investigated in order to determine whether the modification were beneficial to the drug structure. All cytotoxicity assays were performed with A549, human non-small cell lung cancer cells. A549 cells were cultured as specified from ATCC at 37° C., 5% CO2. The cells were added to a 96 well plate (5,000 cells/well) and permitted to attach for 24 h. After 24 h culture media were replaced with the side chain modified MTM SA derivative containing media at differing concentrations. The cells were incubated with the drug containing media for 72 hrs total (n=8). Cell viability was determined using a resazurin assay that signifies mitochondrial metabolic activity in living cells. […] of a 1 mM resazurin solution in PBS was added to the control and analogue-treated cells at the end of the treatment period. Cell viability was determined three hours later by reading the fluorescence at 560 nm (Ex)/590 nm (Em). The fluorescence signals were quantified using a Spectramax M5 plate reader (Molecular Devices) equipped with a SoftMaxPro software. Cytotoxicity was determined by calculating the half maximal inhibitory concentration (IC50) of each sample.
as §1

[5] = test system: Ewing sarcoma (TC32, 5838, SKES1) and non-Ewing (A459 (lung) and PC3 (prostate)) cancer cell lines; experiment: Selectivity assay, Ewing sarcoma versus non-Ewing cell panel (72 hr cytotoxicity)
[6] = test system: ES-8 Ewing sarcoma cell line; experiment: 72 hour cytotoxicity, ES-8; assay type: cell-based; conditions: Ewing sarcoma cell line ES-8, 72 hour
Description: as §1

[7] = test system: HCT-116 non-Ewing sarcoma cell line; experiment: 72 hour cytotoxicity, HCT-116; assay type: cell-based; conditions: non-Ewing sarcoma cell line HCT-116, 72 hour
Description: as §1

[8] = test system: ES-7 Ewing sarcoma cell line; experiment: 72 hour cytotoxicity, ES-7; assay type: cell-based; conditions: Ewing sarcoma cell line ES-7, 72 hour
Description: as §1

[9] = test system: A673 Ewing sarcoma cell line; experiment: 72 hour cytotoxicity, A673; assay type: cell-based; conditions: Ewing sarcoma cell line A673, 72 hour
Description: as §1

[10] = test system: RDES Ewing sarcoma cell line; experiment: 72 hour cytotoxicity, RDES; assay type: cell-based
Description: as §1

[11] = test system: ES-4 Ewing sarcoma cell line; experiment: 72 hour cytotoxicity, ES-4; assay type: cell-based; conditions: Ewing sarcoma cell line ES-4, 72 hour
Description: as §1

[12] = test system: ES-3 Ewing sarcoma cell line; experiment: 72 hour cytotoxicity, ES-3; assay type: cell-based; conditions: Ewing sarcoma cell line ES-3, 72 hour
Description: as §1

[13] = test system: 5838 Ewing sarcoma cell line; experiment: 72 hour cytotoxicity, 5838; assay type: cell-based; conditions: Ewing sarcoma cell line 5838, 72 hour
Description: as §1

[14] = test system: U118 non-Ewing sarcoma cell line; experiment: 72 hour cytotoxicity, U118; assay type: cell-based; conditions: non-Ewing sarcoma cell line U118, 72 hour
Description: as §1

[15] = test system: TC71 Ewing sarcoma cell line; experiment: 72 hour cytotoxicity, TC71; assay type: cell-based; conditions: Ewing sarcoma cell line TC71, 72 hour
Description: as §1

[16] = test system: TC32 Ewing sarcoma cell line; experiment: 72 hour cytotoxicity, TC32; assay type: cell-based; conditions: Ewing sarcoma cell line TC32, 72 hour; read-out: IC50 (nM) TC 32
Description: as §1

[17] = test system: SK-ES-1 Ewing sarcoma cell line; experiment: 72 hour cytotoxicity, SK-ES-1; assay type: cell-based; conditions: Ewing sarcoma cell line SK-ES-1, 72 hour
Description: as §1

[18] = test system: several cancer cell lines; conditions: cited from earlier work

## COC(=O)[C@H](Cc1ccccc1)NC(=O)[C@@H](OC)[C@@H]1Cc2cc3cc(O[C@H]4C[C@@H](O[C@H]5C[C@@H](O)[C@H](O)[C@@H](C)O5)[C@H](O)[C@@H](C)O4)c(C)c(O)c3c(O)c2C(=O)[C@H]1O[C@H]1C[C@@H](O[C@H]2C[C@@H](O[C@H]3C[C@](C)(O)[C@H](O)[C@@H](C)O3)[C@H](O)[C@@H](C)O2)[C@H](O)[C@@H](C)O1 [MTMSA-Phe]
[1]
  IC50: 136 nM
[2]
  IC50: 182 nM
[3]
  IC50: 32 nM
[4]
  IC50: 398 nM
[5]; compared with other MTM SA derivatives, FIG. 10
  potency and selectivity in killing of Ewing sarcoma cells: even more potent and highly selective in killing of Ewing sarcoma cells than other MTM SA derivatives
[6]
  IC50: 59 nM
[7]
  IC50: 21 nM
[8]
  IC50: 61 nM
[9]
  IC50: 109 nM
[10]
  IC50: 94 nM
[11]
  IC50: 35 nM
[12]
  IC50: 363 nM

## CO[C@H](C(=O)NCCc1c[nH]c2ccc(O)cc12)[C@@H]1Cc2cc3cc(OC4CC(OC5CC(O)C(O)C(C)O5)C(O)C(C)O4)c(C)c(O)c3c(O)c2C(=O)[C@H]1OC1CC(OC2CC(OC3CC(C)(O)C(O)C(C)O3)C(O)C(C)O2)C(O)C(C)O1 (stereo partly drawn) [MTMSA-Serotonin]
[13]
  IC50: 690 nM
[2]
  IC50: 749 nM
[14]
  IC50: 916 nM
[4]
  IC50: > 3000 nM
[6]
  IC50: 676 nM
[15]
  IC50: 671 nM
[16]
  IC50: 667 nM
[8]
  IC50: 753 nM
[11]
  IC50: 610 nM
[12]
  IC50: 658 nM
[17]
  IC50: 612 nM

## CO[C@H](C(=O)C(C)=O)[C@@H]1Cc2cc3cc(OC4C[C@@H](OC5C[C@@H](O)[C@H](O)C(C)O5)[C@H](O)C(C)O4)c(C)c(O)c3c(O)c2C(=O)[C@H]1OC1C[C@@H](OC2C[C@@H](OC3C[C@](C)(O)[C@H](O)C(C)O3)[C@@H](O)C(C)O2)[C@H](O)C(C)O1 (stereo partly drawn) [MTM SDK]
[18]
  activity compared to the parent MTM: increased activity

## COC(C(=O)O)[C@@H]1Cc2cc3cc(OC4CC(OC5CC(O)C(O)C(C)O5)C(O)C(C)O4)c(C)c(O)c3c(O)c2C(=O)[C@H]1OC1CC(OC2CC(OC3CC(C)(O)C(O)C(C)O3)C(O)C(C)O2)C(O)C(C)O1 (stereo partly drawn) [MTM SA, mithramycin side chain carboxylic acid]
[18]
  activity compared to the parent MTM: significantly decreased activity

## COC(=O)[C@@H](OC)[C@@H]1Cc2cc3cc(OC4CC(OC5CC(O)C(O)C(C)O5)C(O)C(C)O4)c(C)c(O)c3c(O)c2C(=O)[C@H]1OC1CC(OC2CC(OC3CC(C)(O)C(O)C(C)O3)C(O)C(C)O2)C(O)C(C)O1 (stereo partly drawn) [MTMSA-Me ester]
[13]
  IC50: 193 nM
[2]
  IC50: 76 nM
[14]
  IC50: 38 nM
[4]
  IC50: 99 nM
[6]
  IC50: 47 nM
[15]
  IC50: 46 nM
[16]
  IC50: 67 nM
[8]
  IC50: 51 nM
[11]
  IC50: 41 nM
[12]
  IC50: 90 nM
[17]
  IC50: 86 nM

## COC(=O)[C@H](Cc1ccc(O)cc1)NC(=O)[C@@H](OC)[C@@H]1Cc2cc3cc(OC4CC(OC5CC(O)C(O)C(C)O5)C(O)C(C)O4)c(C)c(O)c3c(O)c2C(=O)[C@H]1OC1CC(OC2CC(OC3CC(C)(O)C(O)C(C)O3)C(O)C(C)O2)C(O)C(C)O1 (stereo partly drawn) [MTMSA-Tyr]
[13]
  IC50: 170 nM
[2]
  IC50: 263 nM
[14]
  IC50: 231 nM
[4]
  IC50: 867 nM
[6]
  IC50: 171 nM
[15]
  IC50: 130 nM
[16]
  IC50: 133 nM
[8]
  IC50: 189 nM
[11]
  IC50: 138 nM
[12]
  IC50: 266 nM
[17]
  IC50: 306 nM

## COC(=O)[C@H](C)NC(=O)[C@@H](OC)[C@@H]1Cc2cc3cc(OC4CC(OC5CC(O)C(O)C(C)O5)C(O)C(C)O4)c(C)c(O)c3c(O)c2C(=O)[C@H]1OC1CC(OC2CC(OC3CC(C)(O)C(O)C(C)O3)C(O)C(C)O2)C(O)C(C)O1 (stereo partly drawn) [MTM SA-Ala]
[5]; FIG. 9, right panel
  selectivity against Ewing sarcoma cells relative to non-Ewing cells: 9 fold
[5]; against Ewing sarcoma cells, relative to MTM
  less potent than MTM: about 200 fold
[5]; relative to MTM, 72 hr
  higher selectivity than MTM against Ewing sarcoma relative to non-Ewing cell lines: 3 fold

## CO[C@H](C(=O)NCCc1c[nH]c2ccccc12)[C@@H]1Cc2cc3cc(OC4CC(OC5CC(O)C(O)C(C)O5)C(O)C(C)O4)c(C)c(O)c3c(O)c2C(=O)[C@H]1OC1CC(OC2CC(OC3CC(C)(O)C(O)C(C)O3)C(O)C(C)O2)C(O)C(C)O1 (stereo partly drawn) [MTMSA-Tryptamine]
[13]
  IC50: 439 nM
[2]
  IC50: 155 nM
[14]
  IC50: 76 nM
[4]
  IC50: 196 nM
[6]
  IC50: 97 nM
[15]
  IC50: 78 nM
[16]
  IC50: 110 nM
[8]
  IC50: 86 nM
[11]
  IC50: 90 nM
[12]
  IC50: 216 nM
[17]
  IC50: 226 nM

## COc1ccc2[nH]cc(CCNC(=O)[C@@H](OC)[C@@H]3Cc4cc5cc(OC6CC(OC7CC(O)C(O)C(C)O7)C(O)C(C)O6)c(C)c(O)c5c(O)c4C(=O)[C@H]3OC3CC(OC4CC(OC5CC(C)(O)C(O)C(C)O5)C(O)C(C)O4)C(O)C(C)O3)c2c1 (stereo partly drawn) [MTMSA-5-OMe Trypamine]
[13]
  IC50: 78 nM
[2]
  IC50: 84 nM
[14]
  IC50: 58 nM
[4]
  IC50: 84 nM
[6]
  IC50: 75 nM
[15]
  IC50: 58 nM
[16]
  IC50: 73 nM
[8]
  IC50: 79 nM
[11]
  IC50: 63 nM
[12]
  IC50: 157 nM
[17]
  IC50: 63 nM
